Measurements as given in ChEMBL document CHEMBL3885861, “Open TG-GATES”.

Species on record: Rattus norvegicus
Experiment: Open TG-GATES - Regimen: Single
Type: toxicity, organism-based, Sprague-Dawley
Set-up: regimen Single, gender Male, age 6 weeks
Conditions: in vivo, po, 1000 mg/kg, route gavage, dose level High; for APTT / Bas / Eos / Fbg / Hb / Ht / Lym / MCH / MCHC / MCV / Mono / Neu / PT / Plat / RBC / Ret / WBC: tissue Blood; for KIDNEY_L / KIDNEY_R / KIDNEY_TOTAL: tissue Kidney; for LIVER: tissue Liver; for A/G / ALP / ALT / AST / BUN / CRE / Ca / Cl / DBIL / GLC / IP / K / LDH / Na / PL / RALB / TBIL / TC / TG / TP / gamma-GTP: tissue Plasma

CC(=O)Nc1ccc2c(c1)Cc1ccccc1-2 [2-ACETYLAMINOFLUORENE]
TERMINAL_BW (3 h): 222.5 g | APTT (3 h): 20.1 s | Bas (3 h): 0.6% | Eos (3 h): 1% | Fbg (3 h): 233.2 mg/dL | Hb (3 h): 14.2 g/dL | Ht (3 h): 41% | Lym (3 h): 73% | MCH (3 h): 21.9 pg | MCHC (3 h): 34.7% | MCV (3 h): 63.3 fL | Mono (3 h): 3% | Neu (3 h): 21.6% | PT (3 h): 12 s | Plat (3 h): 122.7 x10_4/uL | RBC (3 h): 648.8 x10_4/ul | Ret (3 h): 7.5% | WBC (3 h): 60.1 x10_2/uL | KIDNEY_L (3 h): 1 g | KIDNEY_R (3 h): 1 g | KIDNEY_TOTAL (3 h): 2 g | LIVER (3 h): 10.4 g | A/G (3 h): 1.6 | ALP (3 h): 850.2 IU/L | ALT (3 h): 41.4 IU/L | AST (3 h): 84 IU/L | BUN (3 h): 12.4 mg/dL | CRE (3 h): 0.5 mg/dL | Ca (3 h): 10.9 mg/dL | Cl (3 h): 102.4 meq/L | DBIL (3 h): 0.078 mg/dL | GLC (3 h): 218.8 mg/dL | IP (3 h): 10.5 mg/dL | K (3 h): 3.8 meq/L | LDH (3 h): 209.6 IU/L | Na (3 h): 140.8 meq/L | PL (3 h): 151.6 mg/dL | RALB (3 h): 3.6 g/dL | TBIL (3 h): 0.1 mg/dL | TC (3 h): 87.4 mg/dL | TG (3 h): 68.8 mg/dL | TP (3 h): 5.9 g/dL | gamma-GTP (3 h): 1.2 IU/L | TERMINAL_BW (6 h): 215.7 g | APTT (6 h): 19.6 s | Bas (6 h): 0.8% | Eos (6 h): 1.2% | Fbg (6 h): 227.2 mg/dL | Hb (6 h): 14.4 g/dL | Ht (6 h): 41.6% | Lym (6 h): 73.6% | MCH (6 h): 21.9 pg | MCHC (6 h): 34.6% | MCV (6 h): 63.4 fL | Mono (6 h): 1.8% | Neu (6 h): 22.8% | PT (6 h): 12.9 s | Plat (6 h): 126.1 x10_4/uL | RBC (6 h): 656.8 x10_4/ul | Ret (6 h): 7.5% | WBC (6 h): 35.4 x10_2/uL | KIDNEY_L (6 h): 0.9 g | KIDNEY_R (6 h): 0.9 g | KIDNEY_TOTAL (6 h): 1.8 g | LIVER (6 h): 9.7 g | A/G (6 h): 1.7 | ALP (6 h): 1010.2 IU/L | ALT (6 h): 37.4 IU/L | AST (6 h): 72.6 IU/L | BUN (6 h): 14.4 mg/dL | CRE (6 h): 0.5 mg/dL | Ca (6 h): 10.7 mg/dL | Cl (6 h): 102 meq/L | DBIL (6 h): 0.074 mg/dL | GLC (6 h): 251.2 mg/dL | IP (6 h): 9.7 mg/dL | K (6 h): 4 meq/L | LDH (6 h): 228.6 IU/L | Na (6 h): 140.6 meq/L | PL (6 h): 133.6 mg/dL | RALB (6 h): 3.6 g/dL | TBIL (6 h): 0.1 mg/dL | TC (6 h): 83.8 mg/dL | TG (6 h): 26.6 mg/dL | TP (6 h): 5.8 g/dL | gamma-GTP (6 h): 1.4 IU/L | TERMINAL_BW (9 h): 214.2 g | APTT (9 h): 18.7 s | Bas (9 h): 0.6% | Eos (9 h): 0.6% | Fbg (9 h): 252.4 mg/dL | Hb (9 h): 14.8 g/dL | Ht (9 h): 42.6% | Lym (9 h): 68.8% | MCH (9 h): 22 pg | MCHC (9 h): 34.7% | MCV (9 h): 63.3 fL | Mono (9 h): 3.6% | Neu (9 h): 25% | PT (9 h): 13.1 s | Plat (9 h): 130.1 x10_4/uL | RBC (9 h): 673.2 x10_4/ul | Ret (9 h): 7.4% | WBC (9 h): 46.2 x10_2/uL | KIDNEY_L (9 h): 1 g | KIDNEY_R (9 h): 0.9 g | KIDNEY_TOTAL (9 h): 1.9 g | LIVER (9 h): 10.4 g | A/G (9 h): 1.5 | ALP (9 h): 751.4 IU/L | ALT (9 h): 33 IU/L | AST (9 h): 64.8 IU/L | BUN (9 h): 13.4 mg/dL | CRE (9 h): 0.5 mg/dL | Ca (9 h): 11.1 mg/dL | Cl (9 h): 104.6 meq/L | DBIL (9 h): 0.066 mg/dL | GLC (9 h): 225.4 mg/dL | IP (9 h): 9.7 mg/dL | K (9 h): 4.2 meq/L | LDH (9 h): 196.8 IU/L | Na (9 h): 141.4 meq/L | PL (9 h): 160.4 mg/dL | RALB (9 h): 3.6 g/dL | TBIL (9 h): 0.1 mg/dL | TC (9 h): 90 mg/dL | TG (9 h): 34.4 mg/dL | TP (9 h): 6 g/dL | gamma-GTP (9 h): 1 IU/L | TERMINAL_BW (24 h): 212.5 g | APTT (24 h): 20.3 s | Bas (24 h): 0.4% | Eos (24 h): 0.8% | Fbg (24 h): 209.6 mg/dL | Hb (24 h): 14.7 g/dL | Ht (24 h): 42.1% | Lym (24 h): 67.2% | MCH (24 h): 21.8 pg | MCHC (24 h): 35% | MCV (24 h): 62.3 fL | Mono (24 h): 2.8% | Neu (24 h): 28% | PT (24 h): 15 s | Plat (24 h): 140.3 x10_4/uL | RBC (24 h): 675.8 x10_4/ul | Ret (24 h): 7% | WBC (24 h): 79.6 x10_2/uL | KIDNEY_L (24 h): 1 g | KIDNEY_R (24 h): 1 g | KIDNEY_TOTAL (24 h): 1.9 g | LIVER (24 h): 9.7 g | A/G (24 h): 1.6 | ALP (24 h): 787.8 IU/L | ALT (24 h): 32.4 IU/L | AST (24 h): 78.8 IU/L | BUN (24 h): 11.6 mg/dL | CRE (24 h): 0.6 mg/dL | Ca (24 h): 10 mg/dL | Cl (24 h): 105 meq/L | DBIL (24 h): 0.1 mg/dL | GLC (24 h): 190.6 mg/dL | IP (24 h): 8.7 mg/dL | K (24 h): 4.2 meq/L | LDH (24 h): 252.4 IU/L | Na (24 h): 140.8 meq/L | PL (24 h): 116.8 mg/dL | RALB (24 h): 3.3 g/dL | TBIL (24 h): 0.2 mg/dL | TC (24 h): 59.6 mg/dL | TG (24 h): 67.4 mg/dL | TP (24 h): 5.3 g/dL | gamma-GTP (24 h): 1.2 IU/L
